Test results reported in patent US20150044702A1, “MEANS AND METHODS FOR ASSESSING DISORDERS RELATED TO IMPAIRED IRON […] ENERGY METABOLISM” (BASF SE, priority 2012, published 2015).
Marks after values point to notes of the source that are not given here.

Test: 28-day rat study, plasma metabolite profiling: markers for Energy metabolism decreased
Assay type: in vivo
Settings: for 3-Hydroxybutyrate, treatment ratio versus control / Citrate, treatment ratio versus control / Pyruvate, treatment ratio versus control / Succinate, treatment ratio versus control: male rats, plasma; for capability of inducing impaired energy metabolism: statement in words
Description: Drinking water was also offered ad libitum.
The samples were centrifuged for generation of plasma.

SMILES | 3-Hydroxybutyrate, treatment ratio versus control (day 7) | Citrate, treatment ratio versus control (day 7) | Pyruvate, treatment ratio versus control (day 7) | Succinate, treatment ratio versus control (day 7) | capability of inducing impaired energy metabolism | 3-Hydroxybutyrate, treatment ratio versus control (day 14) | Citrate, treatment ratio versus control (day 14) | Pyruvate, treatment ratio versus control (day 14) | Succinate, treatment ratio versus control (day 14)
NC(=O)c1ccc(N)nc1 [6-Aminonicotinamide i.p., 6-Aminopyridine-3-carboxamide] | 0.31* | 0.62* | 0.31* | 0.92* | capable of inducing impaired energy metabolism |  |  |  | 
COCCO [2-Methoxyethanol] | 0.45* | 0.7* | 0.63* | 0.91 | capable of inducing impaired energy metabolism | 0.24* | 0.39* | 0.66* | 0.99
